Source: US20220073554A1, “LINCOSAMIDE ANTIBIOTICS AND USES THEREOF” (President and Fellows of Harvard College, priority 2017, published 2022)
In brackets after ≈: the same amount, converted by molar mass. Read-outs that look alike come from different tables or passages of the source.

Key:
Format in all cases: cell-based
[1] = test system: S. aureus BAA 977 iErmA; test: MIC against S. aureus BAA 977 iErmA; details: Staphylococcus aureus, BAA977
[2] = test system: S. aureus Micromyx USA 300; test: MIC against S. aureus Micromyx USA 300; details: Staphylococcus aureus, USA300
[3] = test system: S. aureus ATCC 29213; test: MIC against S. aureus ATCC 29213; details: Staphylococcus aureus
[4] = test system: P. aeruginosa MMX 3476 Δmex; test: MIC against P. aeruginosa MMX 3476 Δmex; details: Pseudomonas aeruginosa
[5] = test system: S. pneumoniae ATCC 49619; test: MIC against S. pneumoniae ATCC 49619; details: Streptococcus pneumoniae, ATCC49619; S. pneumoniae ATCC 49619; read-out: MIC
[6] = test system: P. aeruginosa MMX Mex parent strain; test: MIC against P. aeruginosa MMX Mex parent strain; details: Pseudomonas aeruginosa
[7] = test system: E. faecalis ATCC 29212; test: MIC against E. faecalis ATCC 29212; details: Enterococcus faecalis
[8] = test system: P. aeruginosa ATCC 27853; test: MIC against P. aeruginosa ATCC 27853; details: Pseudomonas aeruginosa, ATCC27853
[9] = test system: E. coli MMX TolC parent strain; test: MIC against E. coli MMX TolC parent strain; details: Escherichia coli
[10] = test system: S. pyogenes MMX 946 Macrolide-Resistant; test: MIC against S. pyogenes MMX 946 Macrolide-Resistant; details: Streptococcus pyogenes
[11] = test system: H. influenzae ATCC 49247; test: MIC against H. influenzae ATCC 49247; details: Haemophilus influenzae, ATCC49247
[12] = test system: E. faecalis MMX 847 Macrolide-Resistant; test: MIC against E. faecalis MMX 847 Macrolide-Resistant; details: Enterococcus faecalis
[13] = test system: S. pneumoniae MMX 3028 cErmB; test: MIC against S. pneumoniae MMX 3028 cErmB; details: Streptococcus pneumoniae, MMX3028CERMB
[14] = test system: E. coli ATCC 15922; test: MIC against E. coli ATCC 15922; details: Escherichia coli, ATCC15922
[15] = test system: E. coli MMX 0121 ΔTolC; test: MIC against E. coli MMX 0121 ΔTolC; details: Escherichia coli
[16] = test system: S. aureus MMX 3035 cErmA; test: MIC against S. aureus MMX 3035 cErmA; details: Staphylococcus aureus, MMX3035CERMA
[17] = test system: B. fragilis ATCC 25285; test: MIC against B. fragilis ATCC 25285; details: Bacteroides fragilis, ATCC25285
[18] = test system: C. difficile BAA 1805; test: MIC against C. difficile BAA 1805; details: Clostridioides difficile, BAA1805
[19] = test system: S. pyogenes ATCC 19615; test: MIC against S. pyogenes ATCC 19615; details: Streptococcus pyogenes, ATCC19615; S. pyogenes ATCC 19615; read-out: MIC
[20] = test system: S. pneumoniae MMX 3031 cMefA; test: MIC against S. pneumoniae MMX 3031 cMefA; details: Streptococcus pneumoniae, MMX3031CMEFA
[21] = test system: S. aureus MP-549 msr(a) USA 300; test: MIC against S. aureus MP-549 msr(a) USA 300; details: Staphylococcus aureus, USA300, S. aureus MP-549 msr(a) USA 300
[22] = test system: E. coli ATCC 25922; test: MIC against E. coli ATCC 25922; details: Escherichia coli, ATCC25922
[23] = S. aureus Micromyx USA 300, read-out: MIC
[24] = ATCC29213, S. aureus ATCC 29213, read-out: MIC

Compound	MIC [1]	MIC [2, 23]	MIC [3, 24]	MIC [4]	MIC [5]	MIC [6]	MIC ([7]; ATCC29212, read-out: MIC)	MIC [8]	MIC [9]	MIC [10]	MIC [11]	MIC [12]	MIC [13]	MIC [14]	MIC [15]	MIC [16]	MIC [17]	MIC [18]	MIC [19]	MIC [2]	other results
CSC1O[C@H]([C@H](NC(=O)[C@H]2NC[C@@H]3CC(c4ccc(C(F)(F)F)cc4)=CCO[C@H]32)[C@H](C)Cl)C(O)[C@@H](O)[C@H]1O (some centres unmarked) [FSA-507060]	1 µg/mL (≈ 1.72 µM)	0.12 µg/mL (≈ 0.207 µM)	2 µg/mL (≈ 3.44 µM)	> 64 µg/mL	0.5 µg/mL (≈ 0.861 µM)	> 64 µg/mL	8 µg/mL (≈ 13.8 µM)	> 64 µg/mL	–	–	–	–	–	–	–	–	–	–	–	–	–
CSC1O[C@H]([C@H](NC(=O)[C@H]2NC[C@@H]3C=C(c4ccc(F)cc4)CCO[C@@H]23)[C@H](C)Cl)C(O)[C@@H](O)[C@H]1O (some centres unmarked) [FSA-507052]	2 µg/mL (≈ 3.77 µM)	0.5 µg/mL (≈ 0.942 µM)	2 µg/mL (≈ 3.77 µM)	> 32 µg/mL	–	> 32 µg/mL	1 µg/mL (≈ 1.88 µM)	> 32 µg/mL	> 32 µg/mL	> 32 µg/mL	> 32 µg/mL	> 32 µg/mL	> 32 µg/mL	> 32 µg/mL	> 32 µg/mL	> 32 µg/mL	> 32 µg/mL	–	–	–	–
CSC1O[C@H]([C@H](NC(=O)[C@@H]2[C@@H]3OCC=CC[C@H]3CN2C)[C@H](C)Sc2ccc(-c3cncnc3)cc2)C(O)[C@@H](O)[C@H]1O (some centres unmarked) [FSA-212034]	–	–	–	> 64 µg/mL	≤ 0.06 µg/mL	> 64 µg/mL	–	> 64 µg/mL	> 64 µg/mL	–	–	> 64 µg/mL	–	> 64 µg/mL	1 µg/mL (≈ 1.66 µM)	–	–	0.5 µg/mL (≈ 0.829 µM)	≤ 0.06 µg/mL	–	MIC ([10]; S. pyogenes MMX 946 Macrolide-Resistant (MacRes), read-out: MIC): 2 µg/mL (≈ 3.32 µM); MIC ([11]; H. influenzae ATCC 49247, read-out: MIC): 4 µg/mL (≈ 6.64 µM); MIC [20]: ≤ 0.06 µg/mL; MIC [21]: 0.5 µg/mL (≈ 0.829 µM); MIC ([13]; S. pneumoniae MMX 3028 cErmB, read-out: MIC): 4 µg/mL (≈ 6.64 µM); MIC ([17]; B. fragilis ATCC 25285, read-out: MIC): 1 µg/mL (≈ 1.66 µM)
Cc1ccc(S(=O)(=O)OCC2O[C@H]([C@H](NC(=O)[C@H]3NC[C@@H]4CC=CCO[C@H]43)[C@@H](C)O)C(O)[C@@H](O)[C@H]2O)cc1 (some centres unmarked) [FSA-211030]	> 64 µg/mL	–	–	> 64 µg/mL	–	> 64 µg/mL	–	> 64 µg/mL	> 64 µg/mL	> 64 µg/mL	> 64 µg/mL	> 64 µg/mL	> 64 µg/mL	–	> 64 µg/mL	> 64 µg/mL	> 64 µg/mL	> 64 µg/mL	1 µg/mL (≈ 1.8 µM)	> 64 µg/mL	MIC ([3]; ATCC29213): > 64 µg/mL; MIC ([7]; ATCC29212): > 64 µg/mL; MIC [22]: > 64 µg/mL
C[C@@H](O)[C@@H](NC(=O)[C@H]1NC[C@@H]2CC=CCO[C@H]21)[C@H]1OC(CN=[N+]=[N-])[C@H](O)[C@H](O)C1O (some centres unmarked) [FSA-211064]	> 64 µg/mL	–	–	> 64 µg/mL	–	> 64 µg/mL	–	> 64 µg/mL	> 64 µg/mL	> 64 µg/mL	> 64 µg/mL	> 64 µg/mL	> 64 µg/mL	–	> 64 µg/mL	> 64 µg/mL	> 64 µg/mL	–	4 µg/mL (≈ 9.36 µM)	> 64 µg/mL	MIC ([3]; ATCC29213): > 64 µg/mL; MIC ([7]; ATCC29212): > 64 µg/mL; MIC [22]: > 64 µg/mL
CSC1O[C@H]([C@H](NC(=O)[C@H]2NC[C@@H]3C=C(c4ccc(C(F)(F)F)cc4)CCO[C@@H]23)[C@H](C)Cl)C(O)[C@@H](O)[C@H]1O (some centres unmarked) [FSA-507053]	–	0.5 µg/mL (≈ 0.861 µM)	–	> 64 µg/mL	–	> 64 µg/mL	2 µg/mL (≈ 3.44 µM)	> 64 µg/mL	> 64 µg/mL	–	–	> 64 µg/mL	–	> 64 µg/mL	–	> 64 µg/mL	–	–	≤ 0.06 µg/mL	–	MIC ([18]; C. difficile BAA 1805, read-out: MIC): 8 µg/mL (≈ 13.8 µM)
